# From patent publication US20220306647A1, “NOVEL INDOLE-2-CARBOXAMIDES ACTIVE AGAINST THE HEPATITUS B VIRUS (HBV)” (AICURIS GMBH & CO. KG, priority 2019, published 2022)
# Where two headings read alike, the source gives them in different places.
# Assays:
# [1] = target: T1, HBV core protein (C-terminal truncated core protein, 149 amino acids of the N-terminal assembly domain, BODIPY-FL labelled) (UniProt P03146); test: Biochemical capsid assembly assay (fluorescence quenching)
# T1 construct: fused on or other part: A single cysteine added after residue 149, at position 150; It carries the BODIPY-FL maleimide label
# T1 sequence (P03146 whole entry, the tested form may be a part): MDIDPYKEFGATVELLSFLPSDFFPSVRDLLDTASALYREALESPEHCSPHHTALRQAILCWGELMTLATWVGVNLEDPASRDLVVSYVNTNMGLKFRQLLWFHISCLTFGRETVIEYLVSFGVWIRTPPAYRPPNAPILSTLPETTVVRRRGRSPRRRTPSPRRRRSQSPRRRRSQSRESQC
# Outline: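 Fluorescence quenching of BODIPY-FL-labelled core dimers (1.0 to 2.0 μM) in 50 mM HEPES pH 7.5; compounds at 8 concentrations, 0.5 log-unit dilutions from top 100, 31.6 or 10 μM, 0.5% DMSO. Assembly started with NaCl to […]; fluorescence (ex 477/em 525 nm) read after 6 min. EC50 by non-linear regression.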
# HBV (HepAD38 cells) = test: HBV replication assay: determination of HBV DNA from the supernatants of HepAD38 cells; type: cell-based; conditions: Hepatitis B virus, 144 h, HBV DNA in HepAD38 supernatant at day 6, qPCR, read-out: Cell activity
# Description: Determination of HBV DNA from the Supernatants of HepAD38 Cells
# The anti-HBV activity was analysed in the stable transfected cell line HepAD38, which has been described to secrete high levels of HBV virion particles (Ladner et al., 1997). In brief, HepAD38 cells were cultured at 37° C. at 5% CO2 and 95% humidity in 200 μl maintenance medium, which was Dulbecco's modified Eagle's medium/Nutrient Mixture F-12 (Gibco, Karlsruhe), 10% fetal bovine serum (PAN Biotech Aidenbach) supplemented with 50 μg/ml penicillin/streptomycin (Gibco, Karlsruhe), 2 mM L-glutamine (PAN Biotech, Aidenbach), 400 μg/ml G418 (AppliChem, Darmstadt) and 0.3 μg/ml tetracycline. Cells were subcultured once a week in a 1:5 ratio, but were usually not passaged more than ten times. For the assay 60,000 cells were seeded in maintenance medium without any tetracycline into each well of a 96-well plate and treated with serial half-log dilutions of test compound. To minimize edge effects the outer 36 wells of the plate were not used but were filled with assay medium. On each assay plate six wells for the virus control (untreated HepAD38 cells) and six wells for the cell control (HepAD38 cells treated with 0.3 μg/ml tetracycline) were allocated, respectively. In addition, one plate set with reference inhibitors like BAY 41-4109, entecavir, and lamivudine instead of screening compounds were prepared in each experiment. In general, experiments were performed thrice in triplicates. At day 6 HBV DNA from 100 μl filtrated cell culture supernatant (AcroPrep Advance 96 Filter Plate, […] Supor membran, PALL GmbH, Dreieich) was automatically purified on the MagNa Pure LC instrument using the MagNA Pure 96 DNA and Viral NA Small Volume Kit (Roche Diagnostics, Mannheim) according to the instructions of the manufacturer. EC50 values were calculated from relative copy numbers of HBV DNA In brief, 5 μl of the 100 μl eluate containing HBV DNA were subjected to PCR LC480 Probes Master Kit (Roche) together with 1 μM antisense primer […], 0.5 μM sense primer […], 0.3 μM hybprobes […]-FL and LC640-[…]-PH (TIBMolBiol, Berlin) to a final volume of 12.5 μl. The PCR was performed on the Light Cycler 480 real time system (Roche Diagnostics, Mannheim) using the following protocol: Pre-incubation for 1 min at 95° C., amplification: 40 cycles×(10 sec at 95° C., 50 sec at 60° C., 1 sec at 70° C.), cooling for 10 sec at 40° C. Viral load was quantitated against known standards using HBV plasmid DNA of pCH-9/3091 (Nassal et al., 1990, Cell 63: 1357-1363) and the LightCycler 480 SW 1.5 software (Roche Diagnostics, Mannheim) and EC50 values were calculated using non-linear regression with GraphPad Prism 6 (GraphPad Software Inc., La Jolla, USA).
# [2] = assembly started with NaCl, fluorescence read after 6 min, read-out: Assembly activity
# [3] = read-out: Assembly activity, assembly started with NaCl, fluorescence read after 6 min
SMILES,"IC50 [1, 2]",EC50 (HBV (HepAD38 cells)),"IC50 [1, 3]"
"C[C@@H](NC(=O)c1onc2c1CN(C(=O)c1cc3ccccc3[nH]1)CC2)C(F)(F)F [Example 40, 5-(1H-indole-2-carbonyl)-N-[(2R)-1,1,1-trifluoropropan-2-yl]-4H,5H,6H,7H-[1,2]oxazolo[4,3-c]pyridine-3-carboxamide]",< 5 µM,< 1 µM,–
"CN(C(=O)c1cnn2c1CN(C(=O)c1cc3cc(F)c(Cl)cc3[nH]1)CC2)C1(c2cccc(C(=O)O)c2)CC1 [Example 33, 3-{1-[N-methyl-5-(6-chloro-5-fluoro-1H-indole-2-carbonyl)-4H,5H,6H,7H-pyrazolo[1,5-a]pyrazine-3-amido]cyclopropyl}benzoic acid]",< 5 µM,< 1 µM,–
"CN(C(=O)c1cnn2c1CN(C(=O)c1cc3c(F)c(F)ccc3[nH]1)CC2)C1(c2ccc(C(=O)O)cc2)CC1 [Example 52, 4-{1-[N-methyl-5-(4,5-difluoro-1H-indole-2-carbonyl)-4H,5H,6H,7H-pyrazolo[1,5-a]pyrazine-3-amido]cyclopropyl}benzoic acid]",< 5 µM,< 1 µM,–
"COCC1(N(C)C(=O)c2noc3c2CN(C(=O)c2cc4c(Cl)cccc4[nH]2)CC3)CC1 [Example 5, 5-(4-chloro-1H-indole-2-carbonyl)-N-[1-(methoxymethyl)cyclopropyl]-N-methyl-4H,5H,6H,7H-[1,2]oxazolo[4,5-c]pyridine-3-carboxamide]",< 5 µM,< 1 µM,–
"Cc1cccc2[nH]c(C(=O)N3CCc4nn5c(c4C3)C(=O)N(C)C3(CC3)C5)cc12 [Example 16, 4′-methyl-12′-(4-methyl-1H-indole-2-carbonyl)-4′,7′,8′,12′-tetraazaspiro[cyclopropane-1,5′-tricyclo[7.4.0.0^2′7]tridecane]-1′,8′-dien-3′-one]",< 5 µM,< 1 µM,–
"CN1C(=O)c2c3c(nn2CC12CC2)CCN(C(=O)c1cc2ccccc2[nH]1)C3 [Example 14, 12′-(1H-indole-2-carbonyl)-4′-methyl-4′,7′,8′,12′-tetraazaspiro[cyclopropane-1,5′-tricyclo[7.4.0.0^2′7]tridecane]-1′,8′-dien-3′-one]",< 5 µM,< 1 µM,–
"CN(C(=O)c1onc2c1CN(C(=O)c1cc3ccccc3[nH]1)CC2)C1(c2ccc(C(=O)O)cc2)CC1 [Example 109, 4-{1-[N-methyl-5-(1H-indole-2-carbonyl)-4H,5H,6H,7H-[1,2]oxazolo[4,3-c]pyridine-3-amido]cyclopropyl}benzoic acid]",< 5 µM,< 1 µM,–
"CCc1cc(F)cc2[nH]c(C(=O)N3CCn4ncc(C(=O)N(C)C5(c6ccc(C(=O)O)cc6)CC5)c4C3)cc12 [Example 74, 4-{1-[N-methyl-5-(4-ethyl-6-fluoro-1H-indole-2-carbonyl)-4H,5H,6H,7H-pyrazolo[1,5-a]pyrazine-3-amido]cyclopropyl}benzoic acid]",< 5 µM,< 1 µM,–
"CN1C(=O)c2c3c(nn2CC12CC2)CCN(C(=O)c1cc2c(Cl)cccc2[nH]1)C3 [Example 17, 12′-(4-chloro-1H-indole-2-carbonyl)-4′-methyl-4′,7′,8′,12′-tetraazaspiro[cyclopropane-1,5′-tricyclo[7.4.0.0^2′7]tridecane]-1′,8′-dien-3′-one]",< 5 µM,< 1 µM,–
"CCc1cc(F)cc2[nH]c(C(=O)N3CCc4onc(C(=O)N(C)C5(COC)CC5)c4C3)cc12 [Example 4, 5-(4-ethyl-6-fluoro-1H-indole-2-carbonyl)-N-[1-(methoxymethyl)cyclopropyl]-N-methyl-4H,5H,6H,7H-[1,2]oxazolo[4,5-c]pyridine-3-carboxamide]",< 5 µM,< 1 µM,–
"C[C@@H](NC(=O)c1noc2c1CN(C(=O)c1cc3cc(F)c(Cl)cc3[nH]1)CC2)C(F)(F)F [Example 103, 5-(6-chloro-5-fluoro-1H-indole-2-carbonyl)-N-[(2R)-1,1,1-trifluoropropan-2-yl]-4H,5H,6H,7H-[1,2]oxazolo[4,5-c]pyridine-3-carboxamide]",< 5 µM,< 1 µM,–
"CN(C(=O)c1cnn2c1CN(C(=O)c1cc3ccccc3[nH]1)CC2)C1(c2ccccc2C(=O)O)CC1 [Example 30, 2-{1-[N-methyl-5-(1H-indole-2-carbonyl)-4H,5H,6H,7H-pyrazolo[1,5-a]pyrazine-3-amido]cyclopropyl}benzoic acid]",< 5 µM,1 to 10 µM,–
"CN(C(=O)c1noc2c1CN(C(=O)c1cc3ccccc3[nH]1)CC2)C1(c2ccc(C(=O)O)cc2)CC1 [Example 97, 4-{1-[N-methyl-5-(1H-indole-2-carbonyl)-4H,5H,6H,7H-[1,2]oxazolo[4,5-c]pyridine-3-amido]cyclopropyl}benzoic acid]",< 5 µM,< 1 µM,–
"CN(C(=O)c1cnn2c1CN(C(=O)c1cc3ccccc3[nH]1)CC2)C1(c2cccc(C(=O)O)c2)CC1 [Example 13, 3-{1-[N-methyl-5-(1H-indole-2-carbonyl)-4H,5H,6H,7H-pyrazolo[1,5-a]pyrazine-3-amido]cyclopropyl}benzoic acid]",< 5 µM,1 to 10 µM,–
"CN1C(=O)c2c3c(nn2CC12CC2)CCN(C(=O)c1cc2c(F)c(F)ccc2[nH]1)C3 [Example 85, 12′-(4,5-difluoro-1H-indole-2-carbonyl)-4′-methyl-4′,7′,8′,12′-tetraazaspiro[cyclopropane-1,5′-tricyclo[7.4.0.0^2,7]tridecane]-1′,8′-dien-3′-one]",< 5 µM,< 1 µM,–
"CCN1C(=O)c2c3c(nn2CCC12CC2)CCN(C(=O)c1cc2ccccc2[nH]1)C3 [Example 86, 13′-ethyl-4′-(1H-indole-2-carbonyl)-4′,8′,9′,13′-tetraazaspiro[cyclopropane-1,12′-tricyclo[7.5.0.0^2,7]tetradecane]-1′,7′-dien-14′-one]",< 5 µM,< 1 µM,–
"CN(C(=O)c1cnn2c1CN(C(=O)c1cc3cc(F)c(Cl)cc3[nH]1)CC2)C1(c2ccc(C(=O)O)cc2)CC1 [Example 50, 4-{1-[N-methyl-5-(6-chloro-5-fluoro-1H-indole-2-carbonyl)-4H,5H,6H,7H-pyrazolo[1,5-a]pyrazine-3-amido]cyclopropyl}benzoic acid]",< 5 µM,< 1 µM,–
"CN1C(=O)c2c3c(nn2CC12CC2)CCN(C(=O)c1cc2c(F)cccc2[nH]1)C3 [Example 37, 12′-(4-fluoro-1H-indole-2-carbonyl)-4′-methyl-4′,7′,8′,12′-tetraazaspiro[cyclopropane-1,5′-tricyclo[7.4.0.0^2, □]tridecane]-1′,8′-dien-3′-one]",–,< 1 µM,< 5 µM
"CN1C(=O)c2c3c(nn2CC12CC2)CCN(C(=O)c1cc2cc(F)ccc2[nH]1)C3 [Example 79, 12′-(5-fluoro-1H-indole-2-carbonyl)-4′-methyl-4′,7′, 8′,12′-tetraazaspiro[cyclopropane-1,5′-tricyclo[7.4.0.0^2,7]tridecane]-1′,8′-dien-3′-one]",–,< 1 µM,< 5 µM
"CN(C(=O)c1[nH]nc2c1CN(C(=O)c1cc3cc(F)c(Cl)cc3[nH]1)CC2)C1(c2ccc(C(=O)O)cc2)CC1 [Example 55, 4-{1-[N-methyl-5-(6-chloro-5-fluoro-1H-indole-2-carbonyl)-2H,4H,5H,6H,7H-pyrazolo[4,3-c]pyridine-3-amido]cyclopropyl}benzoic acid]",–,1 to 10 µM,< 5 µM
